From the kinase profiling compilation of Christmann-Franck et al. (2016)

Experiments:
Experiment in all cases: KINOMEscan competition binding
Details in all cases: compound 10.0 µM
STK39 (human) = STK39 (human) (UniProt Q9UEW8)
[1] = tested on: PIK3CA (human), P42336 [I800L]
VRK2 (human) = VRK2 (human) (UniProt Q86Y07)
PLK2 (human) = PLK2 (human) (UniProt Q9NYY3)
MAP3K2 (human) = MAP3K2 (human) (UniProt Q9Y2U5)
[2] = tested on: EGFR (human), P00533 [746-750 del]
GRK1 (human) = GRK1 (human) (UniProt Q15835)
CRK2 (P.falciparum) = CRK2 (P.falciparum) (UniProt P61075)
GRK4 (human) = GRK4 (human) (UniProt P32298)
IRAK4 (human) = IRAK4 (human) (UniProt Q9NWZ3)
MET (human) = MET (human) (UniProt P08581)
NIM1 (human) = NIM1 (human) (UniProt Q8IY84)
KIT (human) = KIT (human) (UniProt P10721)
Chain of KIT (human) (P10721 whole entry, looked up): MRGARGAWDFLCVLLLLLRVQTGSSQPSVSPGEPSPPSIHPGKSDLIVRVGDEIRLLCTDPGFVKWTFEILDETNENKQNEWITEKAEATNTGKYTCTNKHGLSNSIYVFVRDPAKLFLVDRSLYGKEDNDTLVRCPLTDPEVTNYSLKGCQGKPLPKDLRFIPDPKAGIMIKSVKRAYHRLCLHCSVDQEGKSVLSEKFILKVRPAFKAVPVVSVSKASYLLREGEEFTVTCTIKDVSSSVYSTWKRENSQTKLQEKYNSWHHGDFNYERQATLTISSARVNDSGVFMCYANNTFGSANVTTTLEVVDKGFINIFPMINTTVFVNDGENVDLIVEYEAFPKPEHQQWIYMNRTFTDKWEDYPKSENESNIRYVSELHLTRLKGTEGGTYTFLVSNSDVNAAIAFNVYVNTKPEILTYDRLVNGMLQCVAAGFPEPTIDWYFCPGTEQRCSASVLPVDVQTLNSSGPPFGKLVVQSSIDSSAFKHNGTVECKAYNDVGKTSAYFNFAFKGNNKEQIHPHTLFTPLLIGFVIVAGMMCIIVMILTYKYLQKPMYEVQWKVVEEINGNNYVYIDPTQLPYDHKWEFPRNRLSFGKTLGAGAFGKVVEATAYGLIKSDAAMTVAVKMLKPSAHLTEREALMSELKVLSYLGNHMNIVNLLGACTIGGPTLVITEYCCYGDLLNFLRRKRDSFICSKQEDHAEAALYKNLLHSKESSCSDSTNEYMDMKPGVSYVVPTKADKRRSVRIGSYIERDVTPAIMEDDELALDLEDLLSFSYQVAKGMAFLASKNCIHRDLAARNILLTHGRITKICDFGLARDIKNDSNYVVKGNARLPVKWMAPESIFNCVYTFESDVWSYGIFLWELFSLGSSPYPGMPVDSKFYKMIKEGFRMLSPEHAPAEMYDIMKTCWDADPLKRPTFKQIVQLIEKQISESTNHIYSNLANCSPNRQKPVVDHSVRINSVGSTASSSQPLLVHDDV

MAP3K1 (human) = MAP3K1 (human) (UniProt Q13233)
CDK13 (human) = CDK13 (human) (UniProt Q14004)
MYLK3 (human) = MYLK3 (human) (UniProt Q32MK0)
[3] = tested on: EGFR (human), P00533 [P753S; 747-752 del]
MAP3K13 (human) = MAP3K13 (human) (UniProt O43283)
[4] = tested on: ABL1 (human), P00519 [E255K]
Chain of ABL1 (human), P00519 [E255K] (P00519 whole entry E255K, looked up): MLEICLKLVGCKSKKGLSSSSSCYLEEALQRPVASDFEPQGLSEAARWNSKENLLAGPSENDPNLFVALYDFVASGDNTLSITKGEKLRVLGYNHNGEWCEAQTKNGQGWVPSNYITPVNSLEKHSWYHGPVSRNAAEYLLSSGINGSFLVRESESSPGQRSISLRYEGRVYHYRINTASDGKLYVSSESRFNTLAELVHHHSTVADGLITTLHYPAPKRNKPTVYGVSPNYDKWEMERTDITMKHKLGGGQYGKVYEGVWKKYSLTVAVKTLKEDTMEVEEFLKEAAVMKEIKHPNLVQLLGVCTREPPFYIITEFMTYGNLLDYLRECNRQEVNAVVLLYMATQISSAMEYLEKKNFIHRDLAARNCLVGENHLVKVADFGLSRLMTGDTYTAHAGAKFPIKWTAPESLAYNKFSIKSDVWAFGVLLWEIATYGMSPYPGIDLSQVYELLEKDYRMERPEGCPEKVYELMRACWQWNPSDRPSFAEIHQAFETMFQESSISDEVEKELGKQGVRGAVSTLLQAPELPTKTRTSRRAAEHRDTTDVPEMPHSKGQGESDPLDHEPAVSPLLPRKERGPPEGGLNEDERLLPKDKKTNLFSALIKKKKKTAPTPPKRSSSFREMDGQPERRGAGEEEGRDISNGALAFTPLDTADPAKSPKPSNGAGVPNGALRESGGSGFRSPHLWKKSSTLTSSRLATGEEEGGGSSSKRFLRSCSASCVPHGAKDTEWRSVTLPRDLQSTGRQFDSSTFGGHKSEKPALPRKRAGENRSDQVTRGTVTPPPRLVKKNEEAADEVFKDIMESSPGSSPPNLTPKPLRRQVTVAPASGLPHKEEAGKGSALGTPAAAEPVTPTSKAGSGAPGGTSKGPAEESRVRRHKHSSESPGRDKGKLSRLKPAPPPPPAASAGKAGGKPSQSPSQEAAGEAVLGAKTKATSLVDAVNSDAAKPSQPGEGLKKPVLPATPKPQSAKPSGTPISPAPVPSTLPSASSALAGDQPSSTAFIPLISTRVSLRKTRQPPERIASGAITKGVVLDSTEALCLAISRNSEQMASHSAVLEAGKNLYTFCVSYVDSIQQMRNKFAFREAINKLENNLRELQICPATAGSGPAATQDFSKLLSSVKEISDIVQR

[5] = tested on: KIT (human), P10721 [V559D/T670I]
Chain of KIT (human), P10721 [V559D/T670I] (P10721 whole entry V559D/T670I, looked up): as the sequence (P10721 whole entry, looked up) above, with V559D, T670I counted along it

CDK2 (human) = CDK2 (human) (UniProt P24941)
MAP3K15 (human) = MAP3K15 (human) (UniProt Q6ZN16)
DYRK1A (human) = DYRK1A (human) (UniProt Q13627)
YSK4 (human) = YSK4 (human) (UniProt Q56UN5)
HIPK2 (human) = HIPK2 (human) (UniProt Q9H2X6)
Chain of HIPK2 (human) (Q9H2X6 whole entry, looked up): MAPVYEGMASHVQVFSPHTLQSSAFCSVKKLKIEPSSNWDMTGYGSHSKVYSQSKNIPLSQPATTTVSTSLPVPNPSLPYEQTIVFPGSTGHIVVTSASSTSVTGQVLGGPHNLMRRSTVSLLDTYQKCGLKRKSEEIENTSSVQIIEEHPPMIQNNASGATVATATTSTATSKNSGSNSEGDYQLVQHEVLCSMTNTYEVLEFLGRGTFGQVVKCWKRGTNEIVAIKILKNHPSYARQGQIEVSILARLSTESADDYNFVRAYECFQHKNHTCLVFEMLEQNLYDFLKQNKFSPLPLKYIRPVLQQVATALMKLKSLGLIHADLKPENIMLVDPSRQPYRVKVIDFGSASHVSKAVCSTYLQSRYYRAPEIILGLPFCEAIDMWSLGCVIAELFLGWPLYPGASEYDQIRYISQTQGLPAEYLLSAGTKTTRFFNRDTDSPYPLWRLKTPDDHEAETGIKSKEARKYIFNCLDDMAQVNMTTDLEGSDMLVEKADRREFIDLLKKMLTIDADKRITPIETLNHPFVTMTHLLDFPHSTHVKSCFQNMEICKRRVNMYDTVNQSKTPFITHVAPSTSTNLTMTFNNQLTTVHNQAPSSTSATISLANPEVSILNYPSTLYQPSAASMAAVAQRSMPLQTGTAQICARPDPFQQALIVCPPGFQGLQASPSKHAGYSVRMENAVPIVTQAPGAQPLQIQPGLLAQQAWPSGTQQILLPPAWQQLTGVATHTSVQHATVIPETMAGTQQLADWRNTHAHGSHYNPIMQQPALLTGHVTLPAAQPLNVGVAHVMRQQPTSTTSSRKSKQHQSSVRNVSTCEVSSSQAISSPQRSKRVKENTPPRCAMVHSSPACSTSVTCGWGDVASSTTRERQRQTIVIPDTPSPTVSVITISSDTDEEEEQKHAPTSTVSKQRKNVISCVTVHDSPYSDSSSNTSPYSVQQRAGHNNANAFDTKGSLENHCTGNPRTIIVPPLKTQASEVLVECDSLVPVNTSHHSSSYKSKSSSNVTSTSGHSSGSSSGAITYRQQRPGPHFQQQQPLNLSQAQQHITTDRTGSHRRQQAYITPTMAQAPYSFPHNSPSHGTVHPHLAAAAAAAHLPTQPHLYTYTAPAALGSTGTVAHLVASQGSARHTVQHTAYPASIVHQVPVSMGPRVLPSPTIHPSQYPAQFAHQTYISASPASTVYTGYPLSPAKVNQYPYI

CPK1 (P.falciparum) = tested on: CPK1 (P.falciparum)
CDK4 CCND3 (human) = CDK4 CCND3 (human) (UniProt P11802+P30281)
PRKCI (human) = PRKCI (human) (UniProt P41743)
SIK3 (human) = SIK3 (human) (UniProt Q9Y2K2)
[6] = tested on: EGFR (human), P00533 [G719S]
SGK3 (human) = SGK3 (human) (UniProt Q96BR1)
Chain of SGK3 (human) (Q96BR1 whole entry, looked up): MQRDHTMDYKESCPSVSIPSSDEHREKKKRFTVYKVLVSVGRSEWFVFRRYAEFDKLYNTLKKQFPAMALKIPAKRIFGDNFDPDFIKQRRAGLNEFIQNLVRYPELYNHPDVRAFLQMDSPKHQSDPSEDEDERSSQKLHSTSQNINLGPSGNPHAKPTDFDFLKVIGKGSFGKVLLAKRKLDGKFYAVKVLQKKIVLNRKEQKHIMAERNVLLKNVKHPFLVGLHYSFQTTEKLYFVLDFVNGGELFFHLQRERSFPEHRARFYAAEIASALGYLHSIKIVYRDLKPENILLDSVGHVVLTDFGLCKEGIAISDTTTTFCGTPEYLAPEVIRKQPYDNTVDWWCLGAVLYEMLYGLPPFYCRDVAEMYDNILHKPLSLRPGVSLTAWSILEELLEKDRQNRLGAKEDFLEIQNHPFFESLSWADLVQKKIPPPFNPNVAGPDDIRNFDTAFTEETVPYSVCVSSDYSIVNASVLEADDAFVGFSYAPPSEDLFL

BRAF (human) = BRAF (human) (UniProt P15056)
EGFR (human) = EGFR (human) (UniProt P00533)
[7] = tested on: EGFR (human), P00533 [L861Q]
TAOK2 (human) = TAOK2 (human) (UniProt Q9UL54)
Chain of TAOK2 (human) (Q9UL54 whole entry, looked up): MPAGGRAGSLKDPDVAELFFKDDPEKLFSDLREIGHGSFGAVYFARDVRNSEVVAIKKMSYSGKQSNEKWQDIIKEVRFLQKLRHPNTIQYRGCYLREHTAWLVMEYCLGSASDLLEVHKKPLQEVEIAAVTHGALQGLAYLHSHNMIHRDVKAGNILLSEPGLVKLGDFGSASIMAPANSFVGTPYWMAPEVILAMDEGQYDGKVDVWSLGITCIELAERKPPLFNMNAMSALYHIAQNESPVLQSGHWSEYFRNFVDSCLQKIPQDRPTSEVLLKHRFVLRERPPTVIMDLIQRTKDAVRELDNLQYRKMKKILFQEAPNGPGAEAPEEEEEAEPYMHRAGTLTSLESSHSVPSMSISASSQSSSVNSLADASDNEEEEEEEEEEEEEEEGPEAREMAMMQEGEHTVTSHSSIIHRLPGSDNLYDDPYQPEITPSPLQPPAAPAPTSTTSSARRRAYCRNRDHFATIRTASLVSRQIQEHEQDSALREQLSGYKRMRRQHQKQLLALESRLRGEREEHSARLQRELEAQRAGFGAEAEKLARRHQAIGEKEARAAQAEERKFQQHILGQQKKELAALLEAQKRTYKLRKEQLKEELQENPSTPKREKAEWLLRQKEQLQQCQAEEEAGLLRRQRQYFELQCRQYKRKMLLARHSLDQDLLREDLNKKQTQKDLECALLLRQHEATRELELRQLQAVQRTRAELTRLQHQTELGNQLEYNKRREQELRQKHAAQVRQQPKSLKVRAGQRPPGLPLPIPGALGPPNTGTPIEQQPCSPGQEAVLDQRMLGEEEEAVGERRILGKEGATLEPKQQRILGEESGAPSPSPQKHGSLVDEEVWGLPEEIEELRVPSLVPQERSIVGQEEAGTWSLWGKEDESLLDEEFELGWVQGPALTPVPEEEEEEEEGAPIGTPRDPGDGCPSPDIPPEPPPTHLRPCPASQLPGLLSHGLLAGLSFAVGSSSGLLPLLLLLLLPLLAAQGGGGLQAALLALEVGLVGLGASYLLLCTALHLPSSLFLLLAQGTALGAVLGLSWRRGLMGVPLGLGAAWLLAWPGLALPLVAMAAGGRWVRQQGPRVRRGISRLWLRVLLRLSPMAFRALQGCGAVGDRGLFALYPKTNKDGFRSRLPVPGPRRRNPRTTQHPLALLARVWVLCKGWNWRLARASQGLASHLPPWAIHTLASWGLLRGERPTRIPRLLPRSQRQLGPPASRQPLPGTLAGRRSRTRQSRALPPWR

PIK3C2G (human) = PIK3C2G (human) (UniProt O75747)
[8] = tested on: PIK3CA (human), P42336 [Q546K]
PIK3CG (human) = PIK3CG (human) (UniProt P48736)
[9] = tested on: PIK3CA (human), P42336 [C420R]
[10] = tested on: PIK3CA (human), P42336 [H1047Y]

Structure (SMILES) | kinase still bound, per cent of control (STK39 (human)) | kinase still bound, per cent of control (VRK2 (human)) | kinase still bound, per cent of control (PLK2 (human)) | kinase still bound, per cent of control (GRK1 (human)) | kinase still bound, per cent of control (CRK2 (P.falciparum)) | kinase still bound, per cent of control (GRK4 (human)) | kinase still bound, per cent of control (IRAK4 (human)) | kinase still bound, per cent of control (MET (human)) | kinase still bound, per cent of control (NIM1 (human)) | kinase still bound, per cent of control (KIT (human)) | kinase still bound, per cent of control (MAP3K1 (human)) | kinase still bound, per cent of control (CDK13 (human)) | kinase still bound, per cent of control (MYLK3 (human)) | kinase still bound, per cent of control (MAP3K13 (human)) | kinase still bound, per cent of control [4] | kinase still bound, per cent of control (MAP3K15 (human)) | kinase still bound, per cent of control (DYRK1A (human)) | kinase still bound, per cent of control (HIPK2 (human)) | kinase still bound, per cent of control (CPK1 (P.falciparum)) | kinase still bound, per cent of control (CDK4 CCND3 (human)) | further results
Nc1ccc(-c2ccc3ncc4ccc(=O)n(-c5cccc(C(F)(F)F)c5)c4c3c2)cn1 | 100% | 100% | 100% | 100% | 100% | 92% | 85% | 100% | 100% | 55% | 100% | 100% | 100% | 100% | 76% | 100% | 75% | 53% | 52% | 90% | kinase still bound, per cent of control [1]: 0%; kinase still bound, per cent of control (MAP3K2 (human)): 78%; kinase still bound, per cent of control [2]: 92%; kinase still bound, per cent of control [3]: 98%; kinase still bound, per cent of control [5]: 68%; kinase still bound, per cent of control (CDK2 (human)): 67%; kinase still bound, per cent of control (YSK4 (human)): 37%; kinase still bound, per cent of control (PRKCI (human)): 100%; kinase still bound, per cent of control (SIK3 (human)): 79%; kinase still bound, per cent of control [6]: 88%; kinase still bound, per cent of control (SGK3 (human)): 100%; kinase still bound, per cent of control (BRAF (human)): 73%; kinase still bound, per cent of control (EGFR (human)): 100%; kinase still bound, per cent of control [7]: 93%; kinase still bound, per cent of control (TAOK2 (human)): 92%
CCOc1cc2ncc(C#N)c(Nc3ccc(OCc4ccccn4)c(Cl)c3)c2cc1NC(=O)/C=C/CN(C)C | 84% | 67% | 85% | 84% | 100% | 68% | 96% | 84% | 90% | 80% | 96% | 100% | 86% | 86% | 100% | 100% | 99% | 65% | 88% | 78% | kinase still bound, per cent of control (PRKCI (human)): 90%; kinase still bound, per cent of control (SIK3 (human)): 73%; kinase still bound, per cent of control (PIK3C2G (human)): 100%; kinase still bound, per cent of control [8]: 100%; kinase still bound, per cent of control (SGK3 (human)): 100%; kinase still bound, per cent of control (BRAF (human)): 95%; kinase still bound, per cent of control (TAOK2 (human)): 92%; kinase still bound, per cent of control (PIK3CG (human)): 91%
CCN1CCN(Cc2ccc(Nc3ncc4c(n3)N(C)c3ccccc3C(=O)N4C)cc2C(F)(F)F)CC1 | 100% | 100% | 100% | 78% | 100% | 56% | 100% | 36% | 57% | 57% | 55% | 100% | 100% | 53% | 0.1% | 74% | 51% | 100% | 74% | 100% | kinase still bound, per cent of control [1]: 12%; kinase still bound, per cent of control (MAP3K2 (human)): 0.55%; kinase still bound, per cent of control [2]: 74%; kinase still bound, per cent of control [9]: 18%; kinase still bound, per cent of control [3]: 79%; kinase still bound, per cent of control [5]: 74%; kinase still bound, per cent of control (CDK2 (human)): 68%; kinase still bound, per cent of control [10]: 3.3%; kinase still bound, per cent of control (YSK4 (human)): 80%; kinase still bound, per cent of control (PRKCI (human)): 100%; kinase still bound, per cent of control (SIK3 (human)): 74%; kinase still bound, per cent of control (PIK3C2G (human)): 17%; kinase still bound, per cent of control [6]: 99%; kinase still bound, per cent of control [8]: 3.2%; kinase still bound, per cent of control (SGK3 (human)): 86%; kinase still bound, per cent of control (EGFR (human)): 73%; kinase still bound, per cent of control [7]: 98%; kinase still bound, per cent of control (TAOK2 (human)): 0.1%; kinase still bound, per cent of control (PIK3CG (human)): 0%
